Drawing on patent US10570167B2 (Calithera Biosciences, Inc., priority 2016, dated 2020), this text covers IC50 for 50 compounds.

Chain of recombinant CD73 (P21589 27-547): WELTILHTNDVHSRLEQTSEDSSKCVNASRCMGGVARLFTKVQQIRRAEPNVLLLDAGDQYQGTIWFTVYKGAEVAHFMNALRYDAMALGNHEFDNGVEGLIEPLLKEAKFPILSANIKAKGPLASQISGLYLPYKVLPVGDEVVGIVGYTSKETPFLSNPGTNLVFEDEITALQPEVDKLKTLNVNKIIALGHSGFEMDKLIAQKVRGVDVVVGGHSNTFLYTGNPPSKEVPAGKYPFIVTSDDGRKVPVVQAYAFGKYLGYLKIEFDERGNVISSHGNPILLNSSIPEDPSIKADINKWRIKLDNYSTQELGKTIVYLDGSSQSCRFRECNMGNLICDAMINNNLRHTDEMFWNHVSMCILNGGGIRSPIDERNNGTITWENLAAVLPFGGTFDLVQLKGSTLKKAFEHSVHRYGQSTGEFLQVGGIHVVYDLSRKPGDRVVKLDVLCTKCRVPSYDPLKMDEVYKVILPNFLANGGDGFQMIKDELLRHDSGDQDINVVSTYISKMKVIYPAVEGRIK

This experiment concerns the target recombinant CD73 (Homo sapiens (Human), UniProt P21589). The experiment is described as follows: Inhibition of soluble recombinant CD73 enzyme activity in vitro (AMP hydrolysis, Malachite Green phosphate detection). The class given is biochemical. To be noted: recombinant CD73 0.5 nM, AMP 50 μM, 30 minutes at room temperature. On the procedure:
Inhibition of the CD73 Enzyme In Vitro
The concentration of inorganic phosphate was determined using a phosphate standard curve.
Broadly, the IC50 is the concentration that gives 50% inhibition. As for `Nc1ncnc2c1ncn2[C@@H]1O[C@H](COC(Cc2ccccc2)(C(=O)O)C(=O)O)[C@@H](O)[C@H]1F`, the IC50 was 21600 nM.
Next, `CN(C)C(=O)c1cccc(CC(OC[C@H]2O[C@@H](n3cnc4c(N)nc(Cl)nc43)[C@@H](F)[C@@H]2O)(C(=O)O)C(=O)O)c1`: 521 nM.
For `Nc1nc(Cl)nc2c1ncn2[C@@H]1O[C@H](COC(Cc2ccsc2)(C(=O)O)C(=O)O)[C@@H](O)[C@@H]1F` the value was 206 nM; for `Nc1cccc(CC(OC[C@H]2O[C@@H](n3cnc4c(N)nc(Cl)nc43)[C@@H](F)[C@@H]2O)(C(=O)O)C(=O)O)c1`, 218 nM; for `N#Cc1ccc(CC(OC[C@H]2O[C@@H](n3cnc4c(N)nc(Cl)nc43)[C@@H](F)[C@@H]2O)(C(=O)O)C(=O)O)cc1`, 97 nM.
Next, `N#Cc1cccc(CC(OC[C@H]2O[C@@H](n3cnc4c(N)nc(Cl)nc43)[C@@H](F)[C@@H]2O)(C(=O)O)C(=O)O)c1`: 531 nM; `Nc1nc(Cl)nc2c1ncn2[C@@H]1O[C@H](COC(Cc2ccc(OC(F)(F)F)cc2)(C(=O)O)C(=O)O)[C@@H](O)[C@@H]1F`: 57 nM; `Nc1nc(Cl)nc2c1ncn2[C@@H]1O[C@H](COC(Cc2ccc(CO)cc2)(C(=O)O)C(=O)O)[C@@H](O)[C@@H]1F`: 160 nM.
`CC(C)(C)OC(=O)Nc1nc(N=[N+]=[N-])nc2c1ncn2[C@@H]1O[C@H](COC(Cc2cccc(C#N)c2)(C(=O)O)C(=O)O)[C@@H](O)[C@@H]1F`: the concentration for half-maximal inhibition (IC50) came to 1790 nM.
Next, `Nc1nc(Cl)nc2c1ncn2[C@@H]1O[C@H](COC(Cc2cccc(C(=O)O)c2)(C(=O)O)C(=O)O)[C@@H](O)[C@@H]1F`: 119 nM.
For `[N-]=[N+]=Nc1nc(N)c2ncn([C@@H]3O[C@H](COC(Cc4cccc(-c5nnn[nH]5)c4)(C(=O)O)C(=O)O)[C@@H](O)[C@@H]3F)c2n1` the value was 1040 nM; for `Nc1nc(Cl)nc2c1ncn2[C@@H]1O[C@H](COC(Cc2cccc(F)c2)(C(=O)O)C(=O)O)[C@@H](O)[C@@H]1F`, 273 nM.
As to `Nc1nc(Cl)nc2c1ncn2[C@@H]1O[C@H](COC(Cc2ccc(F)cc2)(C(=O)O)C(=O)O)[C@@H](O)[C@@H]1F`, the half-inhibitory concentration (IC50) turned out to be 343 nM.
Turning to `COc1cccc(CC(OC[C@H]2O[C@@H](n3cnc4c(N)nc(Cl)nc43)[C@@H](F)[C@@H]2O)(C(=O)O)C(=O)O)c1`, the IC50 stood at 839 nM.
Next, `CCOC(=O)C(Cc1ccc(-c2ccccc2)cc1)(OC[C@H]1O[C@@H](n2cnc3c(N)nc(Cl)nc32)[C@@H](F)[C@@H]1O)C(=O)O` (single isomer, unassigned) [84 Isomer 1]: 7260 nM; `CCOC(=O)C(Cc1ccc(-c2ccccc2)cc1)(OC[C@H]1O[C@@H](n2cnc3c(N)nc(Cl)nc32)[C@@H](F)[C@@H]1O)C(=O)O` (single isomer, unassigned) [84 Isomer 2]: 8260 nM.
Next, `Nc1nc(Cl)nc2c1ncn2[C@@H]1O[C@H](COC(C(=O)O)C(=O)O)[C@@H](O)[C@@H]1F` [Example 5]: 13100 nM; `Nc1nc(Cl)nc2c1ncn2[C@@H]1O[C@H](COC(Cc2ccccc2)(C(=O)O)C(=O)O)[C@@H](O)[C@@H]1F` [Example 6, 2-(((2R,3R,4S,5R)-5-(6-amino-2-chloro-9H-purin-9-yl)-4-fluoro-3-hydroxytetrahydro-furan-2-yl)methoxy)-2-benzylmalonic acid]: 130 nM; `Nc1nc(Cl)nc2c1ncn2[C@@H]1O[C@H](COC(Cc2ccc(Cl)nc2)(C(=O)O)C(=O)O)[C@@H](O)[C@@H]1F` [Example 8, 2-(((2R,3R,4S,5R)-5-(6-amino-2-chloro-9H-purin-9-yl)-4-fluoro-3-hydroxytetrahydro-furan-2-yl)methoxy)-2-((6-chloropyridin-3-yl)methyl)malonic acid]: 363 nM.
Next, `Nc1nc(Cl)nc2c1ncn2[C@@H]1O[C@H](COC(Cc2cccc(OC(F)(F)F)c2)(C(=O)O)C(=O)O)[C@@H](O)[C@@H]1F` [Example 15, 2-(((2R,3R,4S,5R)-5-(6-amino-2-chloro-9H-purin-9-yl)-4-fluoro-3-hydroxytetrahydrofuran-2-yl)methoxy)-2-(3-(trifluoromethoxy)benzyl) malonic acid]: 308 nM; `Nc1nc(Cl)nc2c1ncn2[C@@H]1O[C@H](COC(Cc2ccc(C(F)(F)F)cc2)(C(=O)O)C(=O)O)[C@@H](O)[C@@H]1F` [Example 20, 2-(((2R,3R,4S,5R)-5-(6-amino-2-chloro-9H-purin-9-yl)-4-fluoro-3-hydroxytetrahydrofuran-2-yl)methoxy)-2-(4-(trifluoromethyl)benzyl) malonic acid]: 109 nM.
On to `C[C@@]1(O)[C@@H](COC(Cc2ccccc2)(C(=O)O)C(=O)O)O[C@@H](n2cnc3c(N)nc(Cl)nc32)[C@@H]1O` [Example 149], for which the IC50 was determined as 51 nM.
Next, `COc1ccccc1C(=O)Nc1ccc(CC(OC[C@H]2O[C@@H](n3cnc4c(N)nc(Cl)nc43)[C@@H](F)[C@@H]2O)(C(=O)O)C(=O)O)cc1` [Example 150]: 16 nM; `Nc1nc(Cl)nc2c1ncn2[C@@H]1O[C@H](COC(Cc2ccc(-c3ccccc3C(=O)O)cc2)(C(=O)O)C(=O)O)[C@@H](O)[C@@H]1F` [Example 151]: 31 nM; `Cc1n[nH]c(C)c1-c1ccc(CC(OC[C@H]2O[C@@H](n3cnc4c(N)nc(Cl)nc43)[C@@H](F)[C@@H]2O)(C(=O)O)C(=O)O)cc1` [Example 152]: 34 nM.
Consider `CS(=O)(=O)c1ccc(-c2ccc(CC(OC[C@H]3O[C@@H](n4cnc5c(N)nc(Cl)nc54)[C@@H](F)[C@@H]3O)(C(=O)O)C(=O)O)cc2)cc1` [Example 153], for which the IC50 was determined as 74 nM.
For `C=C1[C@@H](O)[C@H](n2cnc3c(N)nc(Cl)nc32)O[C@@H]1COC(Cc1ccccc1)(C(=O)O)C(=O)O` [Example 154] the value was 1800 nM; for `Nc1nc(Cl)nc2c1ncn2[C@@H]1O[C@H](COC(Cc2ccc(-c3ccc(C(=O)O)cc3)cc2)(C(=O)O)C(=O)O)[C@@H](O)[C@@H]1F` [Example 155], 47 nM.
Next, `Nc1nc(Cl)nc2c1ncn2[C@@H]1O[C@H](COC(Cc2ccc(-c3ccncc3)cc2)(C(=O)O)C(=O)O)[C@@H](O)[C@@H]1F` [Example 156]: 86 nM.
For `Cc1noc(C)c1-c1ccc(CC(OC[C@H]2O[C@@H](n3cnc4c(N)nc(Cl)nc43)[C@@H](F)[C@@H]2O)(C(=O)O)C(=O)O)cc1` [Example 157] the value was 34 nM; for `Nc1nc(Cl)nc2c1ncn2[C@@H]1O[C@H](COC(Cc2ccc(-c3cccs3)cc2)(C(=O)O)C(=O)O)[C@@H](O)[C@@H]1F` [Example 158], 105 nM.
As for `Nc1ncc(-c2ccc(CC(OC[C@H]3O[C@@H](n4cnc5c(N)nc(Cl)nc54)[C@@H](F)[C@@H]3O)(C(=O)O)C(=O)O)cc2)cn1` [Example 159], the IC50 came to 76 nM.
For `Nc1nc(Cl)nc2c1ncn2[C@@H]1O[C@H](COC(Cc2ccc(-c3ccccc3O)cc2)(C(=O)O)C(=O)O)[C@@H](O)[C@@H]1F` [Example 160] the value was 12 nM.
Next, `Nc1nc(Cl)nc2c1ncn2[C@@H]1O[C@H](COC(Cc2ccc(N3CCCC3=O)cc2)(C(=O)O)C(=O)O)[C@@H](O)[C@@H]1F` [Example 162]: 54 nM; `Nc1nc(Cl)nc2c1ncn2[C@@H]1O[C@H](COC(Cc2ccccc2)(C(=O)O)C(=O)O)[C@@H](F)[C@H]1O` [Example 165]: 8930 nM.
For `Nc1nc(Cl)nc2c1ncn2[C@@H]1O[C@H](COC(Cc2ccccc2)(C(=O)O)C(=O)O)[C@H](N)[C@H]1O` [Example 166] the value was > 10000 nM; for `C[C@H]1[C@@H](O)[C@H](n2cnc3c(N)nc(Cl)nc32)O[C@@H]1COC(Cc1ccccc1)(C(=O)O)C(=O)O` [Example 167], > 40000 nM.
With `C[C@@H]1[C@@H](O)[C@H](n2cnc3c(N)nc(Cl)nc32)O[C@@H]1COC(Cc1ccccc1)(C(=O)O)C(=O)O` [Example 168], the IC50 amounted to 1750 nM.
As to `Nc1nc(Cl)nc2c1ccn2[C@@H]1O[C@H](COC(Cc2ccccc2)(C(=O)O)C(=O)O)[C@@H](O)[C@@H]1F` [Example 169], the IC50 was found to be 119 nM.
Next, `Nc1nc(Cl)nc2c1ccn2[C@@H]1O[C@H](COC(Cc2ccc(C(=O)O)cc2)(C(=O)O)C(=O)O)[C@@H](O)[C@@H]1F` [Example 171]: 114 nM.
For `CCOC(=O)c1ccccc1-c1ccc(CC(OC[C@H]2O[C@@H](n3cnc4c(N)nc(Cl)nc43)[C@@H](F)[C@@H]2O)(C(=O)O)C(=O)O)cc1` [Example 175] the value was 18 nM.
Next, `Nc1nc(Cl)nc2c1ncn2[C@@H]1O[C@H](COC(Cc2ccc(-c3ccccn3)cc2)(C(=O)O)C(=O)O)[C@@H](O)[C@@H]1F` [Example 176]: 56 nM; `Cc1[nH]ncc1-c1ccc(CC(OC[C@H]2O[C@@H](n3cnc4c(N)nc(Cl)nc43)[C@@H](F)[C@@H]2O)(C(=O)O)C(=O)O)cc1` [Example 177]: 48 nM.
For the compound `Nc1nc(Cl)nc2c1ncn2[C@@H]1O[C@H](COC(Cc2ccc(N3CCCCS3(=O)=O)cc2)(C(=O)O)C(=O)O)[C@@H](O)[C@@H]1F` [Example 178], the IC50 turned out to be 16 nM.
For the compound `Nc1nc(Cl)nc2c1ncn2[C@@H]1O[C@H](COC(Cc2ccc(N3CCCNC3=O)cc2)(C(=O)O)C(=O)O)[C@@H](O)[C@@H]1F` [Example 179], the IC50 turned out to be 9 nM.
Next, `C[C@@]1(F)C[C@@H](COC(Cc2ccc(C(=O)O)cc2)(C(=O)O)C(=O)O)O[C@H]1n1cnc2c(N)nc(Cl)nc21` [Example 180]: > 100000 nM; `Nc1nc(Cl)nc2c1ncn2[C@@H]1O[C@H](COC(Cc2ccc(-c3cccc(F)c3O)cc2)(C(=O)O)C(=O)O)[C@@H](O)[C@@H]1F` [Example 181]: 9 nM.
As to `CCOC(=O)C(OC[C@H]1O[C@@H](n2cnc3c(N)nc(Cl)nc32)[C@H](O)[C@@H]1O)c1nnn[nH]1` (some centres unmarked) [Example 182], the half-inhibitory concentration (IC50) was > 50000 nM.
Next, `CC(C)(C)OC(=O)Nc1nc(Cl)nc2c1ncn2[C@@H]1O[C@H](COC(Cc2ccccc2)(C(=O)O)c2nnnn2C(C)(C)c2ccccc2)[C@@H](O)[C@@H]1F` (some centres unmarked) [Example 188]: 11500 nM.
Next, `CCOC(=O)C(Cc1ccccc1)(OC[C@H]1O[C@@H](n2cnc3c(N)nc(Cl)nc32)[C@@H](F)[C@@H]1O)c1nn[nH]n1` (some centres unmarked) [Example 193]: > 50000 nM.
